From PMC5190008, “BO-1055, a novel DNA cross-linking agent with remarkable low myelotoxicity shows potent activity in sarcoma models” (Oncotarget, 2016) come the findings set out here.

In data set [1] the test system is patient derived Ewing sarcoma xenografts. Kind of data set: Cyclophosphamide resistant patient-derived Ewing sarcoma xenografts. The format is in vivo, NSG mice. As to conditions: 30mg/kg/dose i.v. q2d x 4, tumors progressed to 500mm^3 after MTD cyclophosphamide. On the procedure:
Patient derived xenografts were established from Ewing sarcoma patients who progressed through first line chemotherapy that included cyclophosphamide, doxorubicin, vincristine, ifosfamide and etoposide (PS3). When these Ewing sarcoma xenografts (n = 10) reached 100mm^3, they were randomized to control and treatment groups.
All mouse experiments were performed at the animal core facility at MSKCC under an approved protocol following the IACUC guidelines. Five to seven-week-old NOD/SCID IL2R gamma null (NSG) mice (bred at the Mouse Genetics Core Facility, MSKCC) were used for in vivo experiments. All mouse experiments were done following the IACUC guidelines at the animal facility at MSKCC. Tumors were induced using 10^6 A673 cells or A204 cells in 0.2ml 1:1 cellular medium, Matrigel matrix (BD Bioscience, Bedford, MA) and injected subcutaneously (s.q) into the right flank. The tumors were measured every 3 d with a caliper, and the diameters were recorded. Tumor volume was calculated by the formula a^2 b/2 where ‘a’ is the smallest and ‘b’ is the largest diameter. When the tumors reached 100mm^3, we randomized mice into control and drug treatment groups. Treatment groups received BO-1055 by tail vein injection at 10mg/kg, 20mg/kg and 30mg/kg q2d x 5 doses for mice bearing A673 xenografts. BO-1055 was given at 30mg/kg q2d x 5 doses for mice bearing A204 xenografts. […]
For orientation: In xenograft studies the graft and the host belong to different species.

The subject of another data set is A673 cells. Kind of data set: Cell cycle analysis (propidium iodide). The format is cell-based, human. As to conditions: A673, prominent at 12-24h of exposure. As for the experimental part: (§1) Cell viability and apoptosis were determined using 7-AAD (BD Pharmingen, San Diego, CA) and Annexin V-APC (BD Pharmingen, San Diego, CA) staining according to the instructions provided by the manufacturer and as previously published. Cell cycle fractions were determined by propidium iodide nuclear staining. Briefly, cells were harvested, washed in PBS, fixed with 70% ethanol, and incubated with propidium iodide/RNase buffer (BD Biosciences, San Diego, CA) for 15 minutes at room temperature. Data was collected on BD LSR Fortessa fluorescence-activated cell analyzer using BD FACS Diva software and analyzed using FlowJo version 9.6 software (Tree Star, Inc. Ashland, OR). Cell cycle analysis was done by applying the Dean/Jett/Fox cell cycle model using FlowJo software.

For the next data set, the system named is A204 cells. Kind of data set: Cell cycle analysis (propidium iodide). It is filed as cell-based, human. As to conditions: A204, prominent at 12-24h of exposure. On the procedure:
as §1

Another data set has as its system A673 xenografts. Kind of data set: A673 xenografts in NSG mice. The format is in vivo. As to conditions: 10mg/kg. As for the experimental part: All mouse experiments were performed at the animal core facility at MSKCC under an approved protocol following the IACUC guidelines. Five to seven-week-old NOD/SCID IL2R gamma null (NSG) mice (bred at the Mouse Genetics Core Facility, MSKCC) were used for in vivo experiments. All mouse experiments were done following the IACUC guidelines at the animal facility at MSKCC. Tumors were induced using 10^6 A673 cells or A204 cells in 0.2ml 1:1 cellular medium, Matrigel matrix (BD Bioscience, Bedford, MA) and injected subcutaneously (s.q) into the right flank. The tumors were measured every 3 d with a caliper, and the diameters were recorded. Tumor volume was calculated by the formula a^2 b/2 where ‘a’ is the smallest and ‘b’ is the largest diameter. When the tumors reached 100mm^3, we randomized mice into control and drug treatment groups. Treatment groups received BO-1055 by tail vein injection at 10mg/kg, 20mg/kg and 30mg/kg q2d x 5 doses for mice bearing A673 xenografts. BO-1055 was given at 30mg/kg q2d x 5 doses for mice bearing A204 xenografts. De-identified patient tumor tissues were obtained in accordance with and approval from the MSKCC Institutional Review Board (IRB). Appropriate written consent and assent were obtained from the patients prior to sample collection. Patient derived xenografts were developed in NSG mice (second passage) from a patient with relapsed Ewing sarcoma, who was treated with two alkylating agents- cyclophosphamide and ifosfamide as part of a multi-agent chemotherapy prior to relapse. When the tumors reached 100mm^2, we randomized mice into control and drug treatment groups. Mice in the control groups received PBS injections while mice in the drug treatment group received the maximum tolerated dose (MTD) of cyclophosphamide 70mg/kg i.p. q2d x 3 (shown by shorter arrows) (Figure 5D). Tumor growth was not inhibited in the cyclophosphamide treated mice. When the tumors reached a size greater than 500mm^3, we started treatment with BO-1055 at a dose of 30mg/kg i.v. q2d x 4 doses (shown by longer arrows in Figure 4F). […]

Where [2] appears, read: 20mg/kg and 30mg/kg/dose q2d x 5.

Regarding `CN(C)CCNC(=O)c1cccc(NC(=O)Nc2ccc(N(CCCl)CCCl)cc2)c1` [BO-1055], the tumor response entry in data set [1] is on record as “tumor regression”. Also, the cell cycle effect entry with A673 cells is reported as “concentration-dependent accumulation of cells in the G2/M phase”. Moreover, in the data set with A204 cells, the cell cycle effect entry is recorded as “concentration-dependent accumulation of cells in the G2/M phase”. In the data set on A673 xenografts (setting [2]), the body weight entry is listed as “no significant decrease in body weight” and the survival result was “prolonged survival”. For the same compound, in the data set with A673 xenografts (20mg/kg and 30mg/kg/dose q2d x 5, tail vein), the tumor growth entry is listed as “inhibition of tumor growth”.
